Experimental data: the supplement of paper PMC5662764
± gives the standard deviation of the averaged measurements.

Experiments:
Test in all cases: normalised growth rate inhibition (GR value) relative to DMSO control (GR (1 = untreated growth, 0 = cytostasis, <0 = cytotoxic)); higher = less growth inhibition
Settings in all cases: 72 h
MCF7 = tested on: MCF7
Experimental: (§1)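 Breast cancer cell lines (BT-20, Hs 578T, MCF 10A, MCF7, MDA-MB-231, SK-BR-3) were plated in 384-well plates and treated 24 h later with drugs at six concentrations (0.04-10 µM). Viable cells were counted by Hoechst/dead-cell-stain imaging at 0 and 72 h. Counts were normalised to DMSO controls on the same plate to give the relative cell count and the growth-rate inhibition (GR) value; technical plate triplicates were averaged for each biological replicate.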

BT20 = tested on: BT20
Experimental: as §1

HS578T = tested on: HS578T
Experimental: as §1

MDAMB231 = tested on: MDAMB231
Experimental: as §1

MCF10A = tested on: MCF10A
Experimental: as §1

SKBR3 = tested on: SKBR3
Experimental: as §1

Structure (SMILES) | normalised growth rate inhibition (MCF7; 0.04 µM) | normalised growth rate inhibition (MCF7; 0.12 µM) | normalised growth rate inhibition (MCF7; 0.37 µM) | normalised growth rate inhibition (MCF7; 1.11 µM) | normalised growth rate inhibition (MCF7; 3.33 µM) | normalised growth rate inhibition (MCF7; 10 µM) | normalised growth rate inhibition (BT20; 0.04 µM) | normalised growth rate inhibition (BT20; 0.12 µM) | normalised growth rate inhibition (BT20; 0.37 µM) | normalised growth rate inhibition (BT20; 1.11 µM) | normalised growth rate inhibition (BT20; 3.33 µM) | normalised growth rate inhibition (BT20; 10 µM) | normalised growth rate inhibition (HS578T; 0.04 µM) | normalised growth rate inhibition (HS578T; 0.12 µM) | normalised growth rate inhibition (HS578T; 0.37 µM) | normalised growth rate inhibition (HS578T; 1.11 µM) | normalised growth rate inhibition (HS578T; 3.33 µM) | normalised growth rate inhibition (HS578T; 10 µM) | normalised growth rate inhibition (MDAMB231; 0.04 µM) | normalised growth rate inhibition (MDAMB231; 0.12 µM) | normalised growth rate inhibition (MDAMB231; 0.37 µM) | normalised growth rate inhibition (MDAMB231; 1.11 µM) | normalised growth rate inhibition (MDAMB231; 3.33 µM) | normalised growth rate inhibition (MDAMB231; 10 µM) | normalised growth rate inhibition (MCF10A; 0.04 µM) | normalised growth rate inhibition (MCF10A; 0.12 µM) | normalised growth rate inhibition (MCF10A; 0.37 µM) | normalised growth rate inhibition (MCF10A; 1.11 µM) | normalised growth rate inhibition (MCF10A; 3.33 µM) | normalised growth rate inhibition (MCF10A; 10 µM) | normalised growth rate inhibition (SKBR3; 0.04 µM) | normalised growth rate inhibition (SKBR3; 0.12 µM) | normalised growth rate inhibition (SKBR3; 0.37 µM) | normalised growth rate inhibition (SKBR3; 1.11 µM) | normalised growth rate inhibition (SKBR3; 3.33 µM) | normalised growth rate inhibition (SKBR3; 10 µM)
C[C@@H](N)c1ccc(C(=O)Nc2ccnc3[nH]ccc23)cc1 | 1.06 ± 0.049 | 1.04 ± 0.043 | 1 ± 0.039 | 0.905 ± 0.11 | 0.63 ± 0.19 | -0.243 ± 0.13 | 0.994 ± 0.068 | 1.01 ± 0.098 | 0.962 ± 0.084 | 0.895 ± 0.073 | 0.802 ± 0.09 | 0.296 ± 0.17 | 0.884 ± 0.015 | 0.821 ± 0.059 | 0.802 ± 0.03 | 0.757 ± 0.041 | 0.626 ± 0.054 | 0.0283 ± 0.12 | 0.873 ± 0.12 | 0.849 ± 0.1 | 0.777 ± 0.11 | 0.703 ± 0.086 | 0.586 ± 0.062 | -0.303 ± 0.14 | 0.9685 ± 0.0076 | 0.877 ± 0.069 | 0.888 ± 0.038 | 0.864 ± 0.047 | 0.805 ± 0.089 | 0.336 ± 0.18 | 0.839 ± 0.19 | 0.836 ± 0.19 | 0.782 ± 0.14 | 0.667 ± 0.18 | 0.522 ± 0.18 | -0.122 ± 0.18
Cn1cnc2c(F)c(Nc3ccc(Br)cc3Cl)c(C(=O)NOCCO)cc21 [selumetinib] | 0.867 ± 0.13 | 0.696 ± 0.071 | 0.568 ± 0.062 | 0.543 ± 0.072 | 0.575 ± 0.063 | 0.524 ± 0.024 | 1.11 ± 0.084 | 1.03 ± 0.099 | 0.999 ± 0.059 | 1.01 ± 0.061 | 0.974 ± 0.093 | 0.975 ± 0.081 | 0.636 ± 0.094 | 0.53 ± 0.1 | 0.471 ± 0.068 | 0.428 ± 0.055 | 0.369 ± 0.036 | 0.26 ± 0.056 | 0.846 ± 0.078 | 0.702 ± 0.097 | 0.545 ± 0.088 | 0.458 ± 0.068 | 0.36 ± 0.068 | 0.2 ± 0.083 | 0.598 ± 0.026 | 0.455 ± 0.053 | 0.36 ± 0.056 | 0.281 ± 0.053 | 0.25 ± 0.041 | 0.177 ± 0.042 | 1.139 ± 0.0015 | 1.037 ± 0.0086 | 1.044 ± 0.0095 | 1.02 ± 0.052 | 1.02 ± 0.033 | 0.969 ± 0.034
Nc1ccc(-c2ccc3ncc4ccc(=O)n(-c5cccc(C(F)(F)F)c5)c4c3c2)cn1 [torin-2] | -0.0044 ± 0.038 | -0.0152 ± 0.09 | -0.0495 ± 0.065 | -0.0476 ± 0.037 | -0.0446 ± 0.024 | -0.111 ± 0.026 | -0.0219 ± 0.046 | -0.0695 ± 0.021 | -0.128 ± 0.077 | -0.218 ± 0.081 | -0.287 ± 0.077 | -0.251 ± 0.1 | 0.192 ± 0.058 | 0.0992 ± 0.089 | -0.0345 ± 0.13 | -0.0453 ± 0.13 | -0.0773 ± 0.12 | -0.135 ± 0.14 | 0.225 ± 0.084 | 0.135 ± 0.11 | 0.0529 ± 0.1 | 0.0249 ± 0.13 | -0.112 ± 0.36 | -0.199 ± 0.18 | 0.169 ± 0.23 | 0.111 ± 0.1 | 0.0505 ± 0.063 | 0.0367 ± 0.05 | 0.0667 ± 0.053 | 0.0215 ± 0.048 | -0.135 ± 0.11 | -0.132 ± 0.11 | -0.158 ± 0.11 | -0.168 ± 0.13 | -0.21 ± 0.077 | -0.286 ± 0.19
CCn1c(-c2nonc2N)nc2c(C#CC(C)(C)O)ncc(OC[C@H]3CCCNC3)c21 | 0.6 ± 0.073 | 0.499 ± 0.17 | 0.42 ± 0.13 | 0.374 ± 0.096 | 0.361 ± 0.09 | 0.312 ± 0.09 | 0.8181 ± 0.0049 | 0.779 ± 0.062 | 0.636 ± 0.11 | 0.521 ± 0.12 | 0.453 ± 0.062 | 0.371 ± 0.047 | 0.846 ± 0.058 | 0.798 ± 0.075 | 0.726 ± 0.084 | 0.713 ± 0.11 | 0.717 ± 0.13 | 0.728 ± 0.12 | 0.86 ± 0.088 | 0.904 ± 0.021 | 0.906 ± 0.021 | 0.94 ± 0.026 | 1.01 ± 0.032 | 0.869 ± 0.08 | 0.989 ± 0.029 | 0.976 ± 0.024 | 0.937 ± 0.039 | 0.873 ± 0.034 | 0.872 ± 0.039 | 0.891 ± 0.042 | 0.578 ± 0.064 | 0.555 ± 0.035 | 0.556 ± 0.038 | 0.571 ± 0.039 | 0.62 ± 0.032 | 0.658 ± 0.065
